The source of these data is patent US7977304B2, “FK 228 derivates as HDAC inhibitors” (University of Southampton Highfield, priority 2005, dated 2011).

For orientation: IC50 means the concentration needed to halve the response being measured. The inhibition is how much of the control response was suppressed. Low readings indicate a weak effect, high ones a strong effect.

In test [1] the test system is histone acetylation in MCF7 breast cancer cells. As to the kind of experiment: Activity Assay 4: histone acetylation by immunoblotting, MCF7. As to conditions: MCF7, 24 hours. It counts as cell-based. How it is done:
Method; Cardiac myocytes were prepared as described in Chembiochem. 2005 January; 6(1):162-70 and incubated with the indicated concentrations of compound 001 for 24 hours. MCF7 cells were incubated with the indicated concentrations of compound 001 for 24 hours. Expression of total histone H4 acetylation, or specific acetylation of Histone H4-K8 or Histone H3-K9 was analysed by Western blotting, as previously described (Brimmell et al. Br J Cancer. 1999 November; 81(6):1042-51) using antibodies from Upstate Biotech.
(A) MCF7 cells were incubated with compound 001 for 24 hours. Histone H4 acetylation was measured by immunoblotting. (B) Cardiac myocytes were incubated with indicated compound 001 for 24 hours. Histone H4 acetylation was measured by immunoblotting. (C) MCF7 cells were incubated with compound 001 for 24 hours. Histone H3-K9 and Histone H4-K8 acetylation was measured by immunoblotting
For orientation: A western blot detects proteins with antibodies after separation by electrophoresis.

The test system of test [2] is HDAC (Hela Nuclear Extract). Nature of the test: Activity Assay 5: in vitro HDAC fluorescent activity assay (Biomol kit). Type of test: biochemical. The note with it: compounds reduced with DTT prior to analysis, 37° C., 1 hour, read-out: Inhibition of HDAC activity IC50. How it is done:
We analysed the ability of compounds to inhibit in vitro HDAC activity. In vitro HDAC assays were performed using a HDAC fluorescent activity assay kit (Biomol, UK) according to the manufacturer's instructions. Compounds were reduced prior to analysis; 1 mM compound was reduced with 30 mM DTT in DMSO overnight at room temperature, protected from light. Reactions were then set up in a 96-well plate. […] Serial dilutions were set up for each compound. Reactions containing Hela extract only and assay buffer only were also set up. 25 μl diluted Fluor de Lys™ substrate (100-fold in assay buffer) was added to each reaction, which were then incubated at 37° C. for 1 hour. The reaction was stopped by addition of 50 μl Fluor de Lys™ Developer (20-fold dilution in assay buffer, plus TSA diluted 100-fold). […] Inhibition of in vitro HDAC activity was determined for mean values of duplicate samples as percentages relative to HeLa extract only reactions. IC50 values were calculated using GraphPad Prism software.

The subject of test [3] is PC3 prostate cancer cells. Nature of the test: Activity Assay 6: CyQuant cell growth inhibition, PC3. Type of test: cell-based. The note with it: Homo sapiens, 96 h, PC3, 4 days. As for the experimental part:
(§1) We analysed the ability of compounds to inhibit the in vitro growth of human cancer cells. Cell proliferation assays were performed using the CyQuant™ assay system (Molecular Probes, Inc. USA) according to the manufacturer's instructions. MCF7 breast, A2780 ovarian and PC3 and LNCAP prostate cancer cells were plated in 96 well plates, at a density of 1000 cells for MCF7 cells or 5000 cells for M780/PC3/LNCAP cells, in 100 μl of cell culture medium per well. Compounds were added a minimum of 5 hours later, in serial dilutions in cell culture medium, in 100 μl volumes at 2× final concentration. Cell culture medium was removed after 4 (A2780, PC3 or LNCAP cells) or 6 days (MCF7 cells) by inversion of the plate onto blotting paper and cells were gently washed once with 200 μl PBS. Plates were frozen immediately for a minimum of one hour at −80° C. and then thawed. 200 μl of 1× CyQuant cell lysis buffer supplemented with dye, made according to the manufacturer's instruction, was added immediately to each well and incubated at room temperature for 3-5 minutes. Fluorescence was then measured for each well using a Cytofluor II Fluoresence Multiwell Plate Reader and CytoFluor II software with filters at 480 nm for excitation and 520 nm for emission maxima. Cell proliferation was determined for mean values of duplicate samples as percentages relative to untreated cell samples (=100%). Growth inhibition curves were used to derive IC50 values.

For test [4], the system named is LNCAP prostate cancer cells. Nature of the test: Activity Assay 6: CyQuant cell growth inhibition, LNCAP. It counts as cell-based. The note with it: Homo sapiens, 96 h, 4 days. How it is done:
as §1

For test [5], the system named is TNFα production from peripheral blood mononuclear cells (PBMCs). As to the kind of experiment: Activity Assay 7: LPS-induced TNFα secretion from PBMCs (QUANTIKINE immunoassay). Type of test: cell-based. As to conditions: Homo sapiens, PBMC; Concentration 200 nM. How it is done:
We analysed the ability of compounds to inhibit the production of TNFα from peripheral blood mononuclear cells (PBMCs). TNF-α immunoassays were carried out using the QUANTIKINE® Human TNF-α assay kit (R&D systems, Abingdon UK) according to the manufacturer's instructions. […] Compounds were added 1 hour later in volumes of 100 μl at 6× final concentration. Five hours later lipopolysaccharide (LSP, Sigma, Poole, UK) was added in a volume of 10 μl at 60× final concentration. Plates were mixed and left overnight at 37° C. 5% C02. Plates were centrifuged and cell supernatant was transferred to a new plate. The QUANTIKINE® assay reagents and standards were prepared according to the manufacturer instructions. The QUANTIKINE® assay plate was prepared by adding 50 μl of assay diluent RD1F into each well. This was followed by 200 μl of standard or 100 μl of calibrator diluent plus 100 μl cell supernatant; this was incubated for 2 hours at room temperature (RT). The plate was washed using wash buffer 4 times. After the final wash the plate was tapped on clean paper towel to remove all residual buffer. 200 μl of TNF-α conjugate was added to each well and incubated for 1 hour at RT. The plate was then washed as before. The required amount of substrate solution was prepared by adding equal volumes of colour reagents A and B, protecting from light, 200 μl of this mix was added to each well and incubated for 20 mins at RT, protected from light. 50 μl of stop solution was added to each well in the same order as the substrate solution and the plate was read on a Biorad 680 96 well plate reader (Bio-Rad, Hemel Hempstead, UK) at 450 nm with λ correction at 570 nm. TNF-α levels were determined for mean values of duplicate samples using absorbance in nm, calibration zero values were subtracted from all results to correct for the addition of calibrator diluent in the assay.

Turning to `CC(C)[C@H]1NC(=O)[C@H]2CSSCC/C=C/[C@H](CC(=O)N[C@H](C)C(=O)N2)OC(=O)CNC1=O` [Compound 9A, (E)-(1S,7R,10S,21R)-7-isopropyl-21-methyl-2-oxa-12,13-dithia-5,8,20,23-tetraaza-bicyclo[8.7.6]tricos-16-ene-3,6,9,19,22-pentaone], the “Histone H3-K9 and Histone H4-K8 acetylation, MCF7 cells” value in test [1] is “specific Histone H3-K9 and Histone H4-K8 acetylation”. The “Histone H4 acetylation, MCF7 cells” value in test [1] was “induces the accumulation of acetylated histone H4”. In addition, the IC50 in test [2] amounted to 9.9 nM; in test [3] it was 50 nM; in test [4], 252 nM. Moreover, the inhibition at 0.2 µM in test [5] is 69%.
